19 compounds from PubChem BioAssay (NCI) can be followed below.

What all share (assay): inhibition of tumour cell growth, NCI panel, 48 h
The test system of assay [1] is TK-10 renal.
The subject of assay [2] is SNB-75 CNS.
The subject of assay [3] is OVCAR-8 ovarian.
The test system of assay [4] is MALME-3M melanoma.
Assay [5] has as its system SK-MEL-5 melanoma.
Assay [6] deals with U251 CNS.
Assay [7] concerns UACC-62 melanoma.
Assay [8] deals with NCI-H23 lung.
The test system of assay [9] is SF-295 CNS.
Assay [10] deals with M14 melanoma.
Assay [11] deals with ACHN renal.
In assay [12] the test system is OVCAR-3 ovarian.
Assay [13] concerns EKVX NSCLC.
The test system of assay [14] is PC-3 prostate.
For assay [15], the system named is OVCAR-5 ovarian.
Assay [16] relates to LOX IMVI melanoma.
The subject of assay [17] is A498 renal.

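Results reflect a 48-hour exposure of cells in 96-well plates to compound at five concentrations. TGI marks complete inhibition of growth.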 Some results are limits rather than exact numbers.

Regarding `Cc1nc2c(cc1C(=O)N/N=C/c1ccc([N+](=O)[O-])cc1)c(=O)n(C)c(=O)n2C`, the TGI in [1] was above 100 µM; in [2] it was above 100 µM; in [3] it was above 100 µM; in [4] it was above 100 µM; in [5], above 100 µM; in assay [6], 57 µM. The TGI in assay [7], in assay [8], in assay [9], in assay [10], in [11] and in assay [12] was above 100 µM each time. The TGI in assay [13], in assay [14] and in assay [15] was above 100 µM in each case.
For the compound `CCC12CCCNC1c1c(n(C)c3ccccc13)C(C(=O)OC)C2` (stereo not drawn), the TGI was above 275 µM in assay [1]; above 275 µM in assay [3]; above 275 µM in assay [4]; 82.5 µM in assay [5]; above 275 µM in assay [6]; above 275 µM in assay [7]. Besides, the TGI was 252 µM in assay [8]; 124 µM in [9]; above 275 µM in [16]; 257 µM in assay [11]; 91.1 µM in [12]; above 275 µM in assay [13]. This compound had a TGI in assay [15] of 208 µM.
As to `CC(=O)Nc1ccc(-c2nc3ccccc3s2)cc1C`, the TGI in [1] is above 100 µM; in assay [2] it was above 100 µM; in assay [3] it was above 100 µM; in [5], above 100 µM; in [6] it was above 100 µM; in assay [17], 21.6 µM. Moreover, the TGI in [7], in assay [8], in assay [9], in assay [16], in [10] and in [11] was above 100 µM each time. Moreover, the TGI in assay [13] and in [14] was above 100 µM in each case.
As to `CSc1cc(Br)ccc1-n1c(C(=O)c2ccccc2)c(SC)n(-c2ccccc2)c1=O`, the TGI in assay [1], in assay [2], in assay [3], in assay [5], in assay [6] and in assay [7] was above 100 µM in each case. Moreover, the TGI in [8], in assay [9], in assay [16], in assay [10], in assay [11] and in [12] was above 100 µM in each case. Also, the TGI in [13], in assay [14] and in [15] was above 100 µM each time.
For the compound `Cc1cc(C)n2c(-c3ccccc3)c(C)cc2n1`, the TGI was above 100 µM in assay [1]; 59.8 µM in assay [2]; above 100 µM in assay [3]; above 100 µM in [4]; above 100 µM in assay [5]; above 100 µM in assay [6]. The TGI in assay [17], in [7], in [8], in [9], in assay [16] and in [10] was above 100 µM throughout. Moreover, the TGI in [11] was above 100 µM; in assay [12] it was 83.3 µM; in [13], above 100 µM; in assay [15], above 100 µM.
`COC(=O)C1=CC2CC1C(S(=O)(=O)c1ccccc1)C2S(=O)(=O)c1ccccc1` (stereo not drawn): the TGI in [1] turned out to be 24.7 µM; in [3] it was 38.5 µM; in assay [4], 23.5 µM; in [5], 33.2 µM; in assay [6], 35.8 µM; in [17], 42.9 µM. In addition, the TGI was found to be 67.9 µM in assay [7]; 36.8 µM in assay [8]; 53.8 µM in assay [9]; 27.1 µM in assay [16]; 25.5 µM in [10]; 21.2 µM in assay [12]. This compound yielded a TGI in [15] of 28.3 µM.
Take `CC(C)(C)CNC(=O)NCn1cc(-c2ccccc2)nn1`: the TGI in [1], in assay [3], in [4], in assay [5], in [6] and in [8] was above 100 µM each time. Besides, the TGI in [9], in assay [16], in [10], in [11], in assay [13] and in [14] was above 100 µM each time. This compound also had a TGI in assay [15] above 100 µM.
`COc1cc2c(cc1OC)CN1CCCc3cc(OC)c(OC)cc3C1C2` (stereo not drawn): the TGI in [1] was above 100 µM; in assay [2] it was 52 µM; in [3], above 100 µM; in assay [4], above 100 µM; in assay [5], above 100 µM; in assay [6], above 100 µM. The TGI in assay [7], in assay [8], in [9], in assay [16], in [10] and in [11] was above 100 µM in each case. Also, the TGI in assay [12], in assay [13], in [14] and in assay [15] was above 100 µM each time.
Consider `CC(Oc1ccc(OCC2CCCCC2)cc1)C(=O)NCCO` (stereo not drawn), for which the TGI in [1], in assay [2], in assay [3], in assay [4], in [5] and in [6] was above 100 µM in each case. In addition, the TGI in assay [17], in assay [7], in assay [8], in assay [9], in assay [16] and in [10] was above 100 µM throughout. For the same compound, the TGI in assay [11] and in [12] was above 100 µM each time.
Turning to `CCOC(=O)C(=[N+]=[N-])C(=O)CN1C(=O)C2CC(C)=C(C)CC2C1O` (stereo not drawn), the TGI in assay [1], in assay [2], in [3], in [4], in [5] and in assay [6] was above 100 µM in each case. Also, the TGI in [7], in [8], in assay [9], in [16], in [10] and in [11] was above 100 µM each time. For the same compound, the TGI in assay [12], in assay [13], in [14] and in [15] was above 100 µM each time.
Consider `O=c1oc2ccccc2c(O)c1/C=N/C(=S)NCc1ccccc1`, for which the TGI in assay [1] is 51.8 µM; in assay [2] it was above 100 µM; in assay [3], above 100 µM; in assay [5] it was above 100 µM; in [6], above 100 µM; in [8], above 100 µM. For the same compound, the TGI in [9], in [16], in assay [10], in assay [11], in assay [12] and in assay [13] was above 100 µM each time. Moreover, the TGI in assay [14] and in assay [15] was above 100 µM throughout.
Turning to `CCCCc1ccc(-n2sc3ncc([N+](=O)[O-])cc3c2=O)cc1`, the TGI in [1] came to 61.9 µM; in assay [2] it was 57.2 µM; in [3], 61 µM; in [4], 21.7 µM; in [5] it was 27.7 µM; in [6] it was 29.1 µM. The TGI in assay [7] was determined as 21.8 µM; in [8] it was 24.1 µM; in [9], 27 µM; in assay [16], 26.1 µM; in assay [10], 43.7 µM; in assay [11], 28 µM. Also, the TGI in [12] was found to be 46.1 µM; in assay [13] it was 29.8 µM; in [14] it was 18.7 µM; in [15], 40.6 µM.
With `Cc1c(/C=N/NC(=S)Nc2ccccc2)c(=O)n(-c2ccccc2)n1C`, the TGI in [1], in assay [2], in assay [3], in assay [5], in assay [6] and in assay [17] was above 100 µM in each case. Further, the TGI in [7], in assay [8], in assay [9], in assay [16], in [10] and in assay [11] was above 100 µM throughout. Also, the TGI in assay [13] and in [14] was above 100 µM throughout.
As to `COC1=CC(=O)c2c(cc(COP(=O)(OCC3OC(n4cc(F)c(=O)[nH]c4=O)CC3O)N(C)CCCCCl)n2C)C1=O` (stereo not drawn), the TGI in assay [1] was above 100 µM; in [3], above 73.3 µM; in [4] it was 9.97 µM; in assay [5], 1.34 µM; in assay [6], 37.7 µM; in assay [7] it was 1.79 µM. In addition, the TGI was 17.7 µM in assay [8]; 1.36 µM in [9]; 14.7 µM in assay [16]; 12.8 µM in [10]; above 100 µM in [11]; 14.5 µM in [12]. Moreover, the TGI in assay [13] was 26 µM; in [14] it was 22.7 µM; in assay [15], 41.1 µM.
On to `COC(=O)C(C(=O)C(=O)Nc1ccccc1C#N)c1nc2ccc([N+](=O)[O-])cc2[nH]c1=O` (stereo not drawn), for which the TGI in [1], in assay [2], in assay [3], in assay [4], in assay [5] and in [6] was above 100 µM each time. The TGI in assay [7], in assay [8], in assay [9], in assay [16], in assay [10] and in assay [11] was above 100 µM each time. The TGI in [12], in assay [13], in [14] and in assay [15] was above 100 µM in each case.
For `COC(CC1(/C=C/O[Si](C(C)C)(C(C)C)C(C)C)C(=O)N(COCC[Si](C)(C)C)c2ccccc21)OC` (stereo not drawn), the TGI in assay [1], in [2], in assay [3], in [5], in [6] and in assay [17] was above 100 µM in each case. The TGI in [7] is 69.4 µM; in [8], above 100 µM; in [9] it was 22.5 µM; in assay [16], 52.9 µM; in assay [10] it was above 100 µM; in assay [11], above 100 µM. Further, the TGI in [12] was 38.3 µM; in [14] it was 85.2 µM; in [15], above 100 µM.
Take `CC(=O)OC1CC2(C)OC(Cc3ccccc32)O1` (stereo not drawn): the TGI in assay [1], in assay [2], in assay [3], in assay [4], in [6] and in assay [7] was above 100 µM each time. For the same compound, the TGI in [8], in [9], in assay [16], in assay [10], in assay [11] and in assay [12] was above 100 µM each time. In [13], the TGI was above 100 µM.
For the compound `Cc1cc2oc(-c3ccccc3)c(C)c(=O)c2c2c1OC(C)(C)S2`, the TGI in [1], in assay [2], in assay [3], in assay [4], in assay [5] and in [6] was above 100 µM in each case. Moreover, the TGI in [7], in assay [8], in assay [9], in assay [16], in assay [10] and in assay [11] was above 100 µM in each case. The TGI in assay [12], in [13] and in [15] was above 100 µM each time.
Turning to `Cc1ccc2c(c1)C1(OC(=O)c3ccccc31)c1ccc(F)cc1O2` (stereo not drawn), the TGI in assay [1], in assay [3], in assay [4], in assay [5], in [7] and in assay [16] was above 100 µM throughout. Also, the TGI in assay [10], in assay [12], in assay [13] and in assay [15] was above 100 µM in each case.
